# System: FOP-iMSCs
# Assay: Microarray / pathway analysis of activin A-induced chondrogenesis of FOP-iMSCs
# Format: cell-based, human
# Conditions: 100 nM, activin A, 7 days
# Method: Microarray experiments. 2D chondrogenic induction was performed in FOP-iMSCs stimulated with or without 100 ng/mL Activin-A, TAK 165, CP-724714 and Lapatinib. Seven days after incubation, mRNA was extracted. RNA was reverse transcribed, biotin-labeled and hybridized to GeneChip Human Gene 1.0 ST Expression Array, which was subsequently washed and scanned according to the manufacturer’s instructions (Affymetrix). Raw CEL files were imported into GeneSpring GX 12.6.1 software (Agilent Technologies), and expression values were calculated with the RMA16 algorithm. Pathway analysis was performed by Ingenuity pathway analysis (Qiagen). […]
structure (smiles),measurement,value
"FC(F)(F)c1ccc(/C=C/c2nc(COc3ccc(CCCCn4ccnn4)cc3)co2)cc1 [TAK 165, mubritinib]",transcriptome: genes involved in chondrogenesis or osteogenesis,affected genes that are involved in chondrogenesis or osteogenesis
